Each structure is given as a SMILES string. Structures can show the parent of a compound that is named as a salt. Where two headings read alike, the source gives them in different places.

On the set-up of series [1]: method as in PMID 27437883. The settings on record: hospitalizing type 2 diabetes mellitus patients, overall and high-risk subgroups; cited from earlier work.
A short description of series [2]: Stability of enalapril and enalaprilat in spiked plasma under different storage conditions. The class given is physicochemical, human. The settings on record: for Stability: n = 6; for Stability test results: spiked plasma and stock solutions, room temperature for 20 hrs, freeze-thaw cycles, autosampler, accelerated stability. The text has this:
(4) Stability. Stability validation was done in triplicate run for low, mid, and high QC samples and calculated from spiked calibration curve. […]

For series [3] the following is noted: LC-MS/MS method; cited from earlier work.
For series [4] the following is noted: cited from earlier work.
On the set-up of series [5]: method as in doi:10.5012/bkcs.2004.25.6.878. The settings on record: after oral administration of enalapril, LC-MS method; cited from earlier work.
A short description of series [6]: Bioequivalence study of two enalapril 20 mg tablet formulae, plasma levels by LC-MS/MS. The class given is in vivo, human. To be noted: single oral dose 20 mg, 30 healthy male volunteers. On the procedure: Protein precipitation were done for each sample by using acetonitrile. The mobile phase was prepared by mixing of 70% methanol and 30% of a mixture of 20 mM ammonium acetate and 0.2 mM formic acid, while the stationary phase was RP-C18 column (50 × 4.0 mm ID, 5 μm). The column was maintained at 40°C, while the autosampler temperature was 4°C. The flow rate was 1.0 ml/min. The plasma levels of the analytes were measured after a single dose of 20 mg enalapril tablets under fasting conditions.
In this study we applied a clinical study similar to that of [16] with modification. Thirty healthy adult male volunteers participated in this study after signing an informed consent. […]
After fasting period (12 hrs, overnight), each volunteer was given an oral dose containing 20 mg of enalapril either “A, reference” or “B, tested” formula with 200 mL of water in the sequence determined by randomization. […]
The pharmacokinetic parameters considered for assessment of the bioequivalence study between the reference drug and test drug were as follows: maximum plasma concentration (Cmax), area under plasma concentration/time plot until the last quantifiable value (AUC0–72), auxiliary parameters, time of the maximum plasma concentration (tmax), elimination half-life time (t-half), and area under plasma concentration/time plot extrapolated to infinity (AUC0–∞). […]

For series [7] the following is noted: single oral intake of 20 mg of enalapril, 24 healthy subjects, GC-MS method; cited from earlier work.
Where [8] appears, read: Accelerated stability at −30.0°C for 30 days, QC 3 ng/ml, plasma.
[9] abbreviates: Accelerated stability at −30.0°C for 30 days, QC 100 ng/ml, plasma.
Where [10] appears, read: Accelerated stability at −30.0°C for 30 days, QC 160 ng/ml, plasma.
Setting [11] is: Autosampler stability 24 h at 4°C, QC 3 ng/ml.
Where [12] appears, read: Autosampler stability 24 h at 4°C, QC 100 ng/ml.
Where [13] appears, read: Autosampler stability 24 h at 4°C, QC 160 ng/ml.
Setting [14] is: Freeze and thaw stability at −20°C (3 cycles), QC 3 ng/ml, plasma.
Setting [15] is: Freeze and thaw stability at −20°C (3 cycles), QC 100 ng/ml, plasma.
[16] abbreviates: Room temperature stability for 10 h, QC 3 ng/ml, plasma.
[17] abbreviates: Room temperature stability for 10 h, QC 100 ng/ml, plasma.
The mark [18] stands for this setting: Room temperature stability for 10 h, QC 160 ng/ml, plasma.

Turning to `N[C@@H](CC(=O)N1CCn2c(nnc2C(F)(F)F)C1)Cc1cc(F)c(F)cc1F` [sitagliptin], the “Effect on the risk for heart failure” value in series [1] was “did not affect”.

Consider `C[C@H](N[C@@H](CCc1ccccc1)C(=O)O)C(=O)N1CCC[C@H]1C(=O)O` [enalaprilat], for which the Stability in series [2] (setting [8]) is reported as 110.47%; in series [2] (setting [9]), 103.62%; in series [2] (setting [10]), 96.68%; in series [2] (setting [11]), 100.94%; in series [2] (setting [12]), 99.93%; in series [2] (setting [13]), 102.09%. The Stability is listed as 95.31% in series [2] (setting [14]); 96.70% in series [2] (setting [15]); 101.18% in series [2] (Freeze and thaw stability at −20°C (3 cycles), QC 160 ng/ml, plasma); 98.02% in series [2] (setting [16]); 98.47% in series [2] (setting [17]); 100.17% in series [2] (setting [18]). In addition, in series [2], the Stability test results is “greater than 85%”. In addition, in series [3], the “AUC0–t” value was 401 ± 89 ng·h/mL. The “AUC0–∞” value in series [3] is 420 ± 91 ng·h/mL. Further, the Cmax (commonly the maximum level reached in the sampled fluid or tissue) in series [3] is 47.5 ± 12.4 ng/mL. Further, in series [3], the T1/2 is given as 6.71 ± 2.22 h. Moreover, the tmax in series [3] is listed as 4.20 ± 1.06 h. In addition, the Half-life in series [4] was 30 to 35 h. In series [4] (enalaprilat after administration of enalapril), the “Time of maximum plasma concentration” value was 3 to 4 h.

`CCOC(=O)[C@H](CCc1ccccc1)N[C@@H](C)C(=O)N1CCC[C@H]1C(=O)O` [enalapril, (S)-1-(N-(1-(ethoxycarbonyl)-3-phenylpropyl)-L-alanyl)-Lproline (Z)-2-butenedioate salt]: the “Maximum plasma concentration (Cmax), mean” value in series [5] is 102 ± 39 ng/mL. The “Time to maximum plasma concentration (tmax)” value in series [5] was 0.96 ± 0.36 h. In addition, the Tolerability in volunteers entry in series [6] was “well tolerated”. Besides, the “Cmax, mean” value in series [7] was 72.9 ± 41.6 ng/mL. In addition, the tmax in series [7] is 4.0 ± 1.4 h; in series [3] it was 0.860 ± 0.310 h. Also, the Stability came to 97.81% in series [2] (setting [8]); 96.59% in series [2] (setting [9]); 85.10% in series [2] (setting [10]); 95.83% in series [2] (setting [11]); 98.34% in series [2] (setting [12]); 95.40% in series [2] (setting [13]). Besides, the Stability was found to be 96.45% in series [2] (setting [14]); 98.54% in series [2] (setting [15]); 99.57% in series [2] (setting [16]); 101.64% in series [2] (setting [17]); 103.66% in series [2] (setting [18]). The Stability test results in series [2] is on record as “greater than 85%”. In addition, the “AUC0–t” value in series [3] is 136 ± 36 ng·h/mL. In series [3], the “AUC0–∞” value is 138 ± 36 ng·h/mL. Besides, the Cmax in series [3] is 90.5 ± 28.4 ng/mL. Moreover, the T1/2 in series [3] is on record as 1.35 ± 0.61 h. Also, in series [4] (absorbed from the gastrointestinal tract), the Bioavailability is reported as 60–70%. For the same molecule, in series [4] (after 4 hrs), the “Plasma level after 4 hrs” value was less than 10 ng/mL. Also, in series [4], the “Effect of presence of food in the GI tract on absorption” value was “not affected”. In addition, the Terminal half-life result in series [4] is “about 2 h”. The “Time to maximum plasma concentration” value in series [4] (enalapril, after oral administration) was not above 1 h.

(Values after publication PMC5574226, “A Liquid Chromatography-Tandem Mass Spectrometry Method for Evaluation of Two Brands of Enalapril 20 mg Tablets in Healthy Human Volunteers” (Journal of Analytical Methods in Chemistry, 2017).)
